Measured values reported in ChEMBL document CHEMBL1146179, “Desosamine in multicomponent reactions” (Bioorg Med Chem Lett, 2006).
Activity calls are given as the source filed them.

Experiments:
Assay type in all cases: functional, organism-based
Staphylococcus aureus [1] = experiment: Antibacterial activity against Staphylococcus aureus ATCC 6538 at 100 mM
Candida albicans [2] = experiment: Antifungal activity against Candida albicans ATCC 10231 at 50 mM
Candida albicans [3] = experiment: Antifungal activity against Candida albicans ATCC 10231 at 400 mM
Candida albicans [4] = experiment: Antifungal activity against Candida albicans ATCC 10231 at 100 mM
Bacillus subtilis [5] = experiment: Antibacterial activity against Bacillus subtilis at 100 mM
Escherichia coli [6] = experiment: Antibacterial activity against Escherichia coli at 400 mM
Bacillus subtilis [7] = experiment: Antibacterial activity against Bacillus subtilis at 400 mM
Escherichia coli [8] = experiment: Antibacterial activity against Escherichia coli at 50 mM
Staphylococcus aureus [9] = experiment: Antibacterial activity against Staphylococcus aureus ATCC 6538 at 400 mM
Escherichia coli [10] = experiment: Antibacterial activity against Escherichia coli at 100 mM
Bacillus subtilis [11] = experiment: Antibacterial activity against Bacillus subtilis at 50 mM
Staphylococcus aureus [12] = experiment: Antibacterial activity against Staphylococcus aureus ATCC 6538 at 50 mM

Measured: Activity

COC(=O)Cn1nnnc1C(NC1O[C@H](C)C[C@H](N(C)C)[C@H]1O)c1ccccc1 (some centres undefined)
inactive: all assays above

C[C@@H]1C[C@H](N(C)C)[C@@H](O)C(NCc2nnnn2C(C)(C)C)O1 (some centres undefined)
inactive: all assays above
